This is an account of results in EPA's ToxRefDB 2.

In data set [1] the test system is rat. Particulars: Prenatal developmental toxicity study, sprague dawley, Oral, Gavage/Intubation, dose end: 17 GD.
Data set [2] relates to rat. As to conditions: Prenatal developmental toxicity study, sprague dawley, Oral, Gavage/Intubation, dose end: 17 GD. This is another data set of the same source.
In data set [3] the test system is dog. Particulars: Sub-acute repeat dose toxicity, beagle, Oral, Gavage/Intubation, dose end: 4 week, group: systemic.
The next data set has as its system rabbit. As to conditions: Prenatal developmental toxicity study, new zealand white, Oral, Gavage/Intubation, dose end: 19 GD.
Data set [4] concerns rat. As to conditions: Sub-acute repeat dose toxicity, sprague dawley, Oral, Gavage/Intubation, dose end: 28 day, group: systemic.
Data set [5] relates to rat. As to conditions: Subchronic oral toxicity in rodents, sprague dawley, Gavage/Intubation, dose end: 90 day, group: systemic.
For data set [6], the system named is rat. As to conditions: Carcinogenicity, fischer, Oral, Feed, dose end: 104 week, group: systemic.
Data set [7] concerns rat. As to conditions: Prenatal developmental toxicity study; sprague dawley; Oral; Gavage/Intubation; dose end: 15 GD; group: developmental; systemic / in life observation / body weight / fetal weight.
The test system of data set [8] is mouse. As to conditions: Combined chronic toxicity/carcinogenicity, other, Oral, Feed, dose end: 24 month, group: systemic.
Data set [9] concerns rat. Particulars: Carcinogenicity; other; Oral; Feed; dose end: 78 week; group: systemic; systemic / pathology microscopic / thyroid gland / adenoma + systemic / in life observation / clinical signs / abdominogenital staining + ….
Data set [10] relates to mouse. As to conditions: Carcinogenicity; b6c3f1; Oral; Feed; dose end: 78 week; group: systemic; systemic / in life observation / body weight / body weight + systemic / pathology microscopic / liver / carcinoma.
Data set [11] has as its system mouse. Particulars: Carcinogenicity, b6c3f1, Oral, Water, dose end: 96 week, group: systemic.
For data set [12], the system named is mouse. As to conditions: Subchronic oral toxicity in rodents, b6c3f1, Water, dose end: 10 week, group: systemic.
Data set [13] concerns mouse. Particulars: Carcinogenicity, cd1, Oral, Feed, dose end: 18 month, group: systemic.
The subject of data set [14] is rat. Particulars: Combined chronic toxicity/carcinogenicity, sprague dawley, Oral, Feed, dose end: 24 month, group: systemic.
Data set [15] relates to dog. As to conditions: Chronic toxicity, beagle, Oral, Feed, dose end: 52 week, group: systemic.
Data set [16] relates to rat. As to conditions: Subchronic oral toxicity in rodents, sprague dawley, Feed, dose end: 90 day, group: systemic.
Data set [17] has as its system rat. As to conditions: Prenatal developmental toxicity study, sprague dawley, Oral, Gavage/Intubation, dose end: 15 GD.
Where [18] appears, read: group: developmental, systemic / in life observation / body weight / fetal weight.
The mark [19] stands for this setting: group: maternal, systemic / in life observation / body weight / body weight gain + systemic / in life observation / food consumption / food consumption + ….
The mark [20] stands for this setting: group: developmental, developmental / developmental malformation / brain / dilated cerebral ventricle.
The mark [21] stands for this setting: group: developmental, developmental / developmental malformation / brain / dilated cerebral ventricle + developmental / developmental malformation / bone / ….
Where [22] appears, read: group: maternal, reproductive / reproductive performance / postimplantation loss / postimplantation loss + systemic / in life observation / body weight / ….
Where [23] appears, read: group: maternal, systemic / in life observation / body weight / body weight gain.
Where [24] appears, read: systemic / clinical chemistry / chloride / chloride + systemic / hematology / eosinophils / eosinophils + systemic / hematology / ….
[25] abbreviates: systemic / in life observation / body weight / body weight + systemic / in life observation / clinical signs / defecation (diarrhea) + ….
Setting [26] is: group: maternal, reproductive / reproductive performance / postimplantation loss / postimplantation loss + reproductive / reproductive performance / ….
Where [27] appears, read: systemic / clinical chemistry / alanine aminotransferase (alt/sgpt) / alanine aminotransferase (alt/sgpt) + systemic / clinical chemistry / ….
Where [28] appears, read: systemic / hematology / platelet / platelet + systemic / in life observation / clinical signs / hunched posture + systemic / pathology ….
Where [29] appears, read: systemic / clinical chemistry / creatinine / creatinine + systemic / clinical chemistry / phosphorus / phosphorus + systemic / clinical ….
The mark [30] stands for this setting: systemic / in life observation / clinical signs / general pallor + systemic / in life observation / clinical signs / lethargy + systemic / ….
The mark [31] stands for this setting: systemic / pathology microscopic / parathyroid gland / hyperplasia.
The mark [32] stands for this setting: systemic / organ weight / brain / relative to body weight.
[33] abbreviates: systemic / organ weight / brain / relative to body weight + systemic / organ weight / heart / relative to body weight + systemic / organ ….
Where [34] appears, read: systemic / in life observation / mortality / mortality + systemic / pathology microscopic / kidney / degeneration + systemic / pathology ….
[35] abbreviates: systemic / pathology microscopic / nerve / degeneration + systemic / pathology microscopic / spinal cord / degeneration + systemic / ….
The mark [36] stands for this setting: systemic / clinical chemistry / gamma glutamyl transferase (ggt) / gamma glutamyl transferase (ggt).
Setting [37] is: systemic / in life observation / clinical signs / ataxia + systemic / pathology microscopic / brain / vacuolization.
Setting [38] is: systemic / in life observation / clinical signs / ataxia + systemic / pathology microscopic / brain / vacuolization + systemic / in life ….
Setting [39] is: systemic / pathology microscopic / spleen / hyperplasia + systemic / clinical chemistry / calcium / calcium + systemic / clinical chemistry….
The mark [40] stands for this setting: group: developmental, developmental / developmental malformation / bone / enlarged fontanel + developmental / developmental malformation / bone / incomplete ….

Broadly, the LOAEL is the lowest dose or exposure tested at which an adverse effect was seen. One may read the NOAEL as the highest tested level that showed no adverse finding. As for `N#C[C@@H]1CC(F)(F)CN1C(=O)CNC1CC2CCC(C1)N2c1ncccn1` (stereo partly drawn), the LEL in the data set on rat [1] (setting [18]) came to 100 mg/kg/day; with rat [1] (setting [19]) it was 200 mg/kg/day; in the data set with rat [2] (setting [20]) it was 100 mg/kg/day; with rat [2] (setting [23]) it was 100 mg/kg/day; in the data set with dog [3] (setting [25]) it was 3 mg/kg/day; in the data set with rabbit (setting [18]) it was 500 mg/kg/day. For the same compound, the LEL with rabbit (setting [26]) was 500 mg/kg/day; in the data set on rat [4] (setting [28]), 50 mg/kg/day. For the same compound, the LOAEL was 100 mg/kg/day with rat [1] (setting [18]); 200 mg/kg/day with rat [1] (setting [19]); 100 mg/kg/day in the data set on rat [2] (setting [20]); 150 mg/kg/day in the data set with rat [2] (setting [22]); more than 30 mg/kg/day with dog [3] (setting [24]); more than 1500 mg/kg/day in the data set with rabbit (setting [18]). Moreover, the LOAEL was more than 1500 mg/kg/day in the data set on rabbit (setting [26]) and more than 450 mg/kg/day in the data set with rat [4] (setting [27]). Also, the NEL with rat [1] (setting [18]) was less than 100 mg/kg/day; with rat [1] (setting [19]), 100 mg/kg/day; with rat [2] (setting [21]) it was 50 mg/kg/day; in the data set on rat [2] (setting [22]) it was 50 mg/kg/day; in the data set with dog [3] (setting [25]) it was less than 3 mg/kg/day; in the data set with rabbit (setting [18]), less than 500 mg/kg/day. The NEL in the data set on rabbit (setting [26]) was less than 500 mg/kg/day; in the data set with rat [4] (setting [28]), less than 50 mg/kg/day. Besides, the no-observed-adverse-effect level (NOAEL) was less than 100 mg/kg/day with rat [1] (setting [18]); 100 mg/kg/day in the data set on rat [1] (setting [19]); 50 mg/kg/day in the data set on rat [2] (setting [21]); 100 mg/kg/day in the data set on rat [2] (setting [22]); not below 30 mg/kg/day in the data set with dog [3] (setting [24]); not below 1500 mg/kg/day in the data set with rabbit (setting [18]). The values for the NOAEL in the data set on rabbit (setting [26]) and with rat [4] (setting [27]) were not below 1500 mg/kg/day and not below 450 mg/kg/day, respectively.
For the compound `O=c1c(C2CC(c3ccc(-c4ccc(Br)cc4)cc3)Cc3ccccc32)c(O)sc2ccccc12` (stereo not drawn) [Difethialone], in the data set on rat [5] (setting [29]), the LEL is 0.002 mg/kg/day and the NEL was less than 0.002 mg/kg/day. Moreover, in the data set with rat [5] (setting [30]), the LOAEL came to 0.008 mg/kg/day and the NOAEL came out at 0.004 mg/kg/day.
For the compound `O=c1c(O)c(-c2ccc(O)c(O)c2)oc2cc(O)cc(O)c12` [Quercetin], the results for the LOAEL in the data set with rat [6] (systemic / in life observation / body weight / body weight + systemic / in life observation / body weight / body weight gain + systemic / …) and with rat [7] were 1600 mg/kg/day and more than 2000 mg/kg/day, respectively. The results for the NOAEL with rat [6] (systemic / in life observation / body weight / body weight + systemic / organ weight / kidney / relative to body weight + systemic / organ …) and in the data set on rat [7] were 400 mg/kg/day and not below 2000 mg/kg/day, respectively. Besides, the LEL with rat [6] (setting [31]) was 40 mg/kg/day; in the data set with rat [7] it was 200 mg/kg/day. Further, the figures for the NEL with rat [6] (setting [31]) and with rat [7] were less than 40 mg/kg/day and 20 mg/kg/day, respectively.
`CC(CCl)OC(C)CCl` (stereo not drawn) [Bis(2-chloro-1-methylethyl) ether]: in the data set on mouse [8] (setting [27]), the LOAEL is more than 927 mg/kg/day, the NEL is 8.41 mg/kg/day and the NOAEL was not below 927 mg/kg/day. The LEL in the data set with mouse [8] (systemic / hematology / leukocyte (wbc) count differential / leukocyte (wbc)) is 40.1 mg/kg/day.
Turning to `Clc1ccc(C(c2ccc(Cl)cc2)C(Cl)Cl)cc1` [p,p'-DDD], in the data set with rat [9], the LEL was determined as 42.5 mg/kg/day, the LOAEL is more than 85 mg/kg/day, the NEL was less than 42.5 mg/kg/day and the NOAEL is not below 85 mg/kg/day. Further, in the data set with mouse [10], the LEL is 61.6 mg/kg/day, the LOAEL is more than 123 mg/kg/day, the NEL was less than 61.6 mg/kg/day and the NOAEL was not below 123 mg/kg/day.
Take `O=C1O[C@H]([C@H](O)CO)C([O-])=C1O.[Na+]` [Sodium erythorbate (1:1)]: the LEL in the data set on mouse [11] (setting [32]) amounted to 1670 mg/kg/day; with mouse [12] (systemic / in life observation / body weight / body weight gain + systemic / pathology microscopic / kidney / degeneration + systemic / …), 6670 mg/kg/day. Further, the NEL with mouse [11] (setting [32]) is less than 1670 mg/kg/day; in the data set with mouse [12] (systemic / in life observation / body weight / body weight gain + systemic / in life observation / mortality / mortality + systemic / …), 3330 mg/kg/day. Further, the LOAEL with mouse [11] (setting [33]) is more than 6670 mg/kg/day; in the data set with mouse [12] (setting [34]), more than 13300 mg/kg/day. The NOAEL in the data set on mouse [11] (setting [33]) is not below 6670 mg/kg/day; in the data set with mouse [12] (setting [34]) it was not below 13300 mg/kg/day.
Turning to `Cc1cc(C)nc(NC(=O)NS(=O)(=O)c2ccccc2C(=O)OC2COC2)n1` [Oxasulfuron], the LOAEL came to 99.1 mg/kg/day in the data set with mouse [13] (systemic / pathology microscopic / nerve / degeneration + systemic / pathology microscopic / spinal cord / degeneration); 83 mg/kg/day in the data set with rat [14] (setting [36]); 10.7 mg/kg/day with dog [15] (setting [37]); 316 mg/kg/day in the data set with rat [16] (systemic / pathology microscopic / spleen / hyperplasia); 1000 mg/kg/day in the data set on rat [17] (setting [40]); 1000 mg/kg/day with rat [17] (setting [23]). The LEL in the data set on mouse [13] (systemic / pathology microscopic / nerve / degeneration + systemic / pathology microscopic / spinal cord / degeneration + systemic / organ …) was 99.1 mg/kg/day; in the data set with rat [14] (setting [36]), 0.84 mg/kg/day; in the data set with dog [15] (setting [37]), 10.7 mg/kg/day; with rat [16] (systemic / clinical chemistry / chloride / chloride + systemic / clinical chemistry / cholesterol / cholesterol), 15.3 mg/kg/day; with rat [17] (setting [40]), 1000 mg/kg/day; in the data set with rat [17] (setting [23]) it was 1000 mg/kg/day. For the same compound, the NEL in the data set on mouse [13] (setting [35]) is 1.5 mg/kg/day; with rat [14] (setting [36]), less than 0.84 mg/kg/day; in the data set on dog [15] (setting [38]), 1.3 mg/kg/day; in the data set on rat [16] (setting [39]) it was 0.62 mg/kg/day; with rat [17] (setting [40]), 300 mg/kg/day; with rat [17] (setting [23]) it was 300 mg/kg/day. Moreover, the NOAEL in the data set with mouse [13] (setting [35]) is 1.5 mg/kg/day; in the data set on rat [14] (systemic / clinical chemistry / gamma glutamyl transferase (ggt) / gamma glutamyl transferase (ggt) + systemic / pathology microscopic / …), 8.3 mg/kg/day; in the data set with dog [15] (setting [38]), 1.3 mg/kg/day; in the data set with rat [16] (setting [39]), 15.3 mg/kg/day; in the data set on rat [17] (setting [40]), 300 mg/kg/day; in the data set with rat [17] (setting [23]) it was 300 mg/kg/day.
